Measured values published in patent publication US20110071096A1, “Macrolides Having Antibiotic Activity” (IDEXX Laboratories, Inc., priority 2009, published 2011).
Converted amounts (≈) assume the structure as drawn. Marks after values point to notes of the source that are not given here.

Tests used:
Pasteurella multocida [1] = conditions: gram negative; from J. F. Presscott, Antimicrobial Therapy in Veterinary Medicine, 3rd ed.; cited from earlier work
Streptococcus pneumonia [2] = conditions: gram positive; from J. Med. Chem., 44, 4137-4156 (2001); cited from earlier work
Streptococcus pyogenes [3] = conditions: gram positive; from J. Med. Chem., 44, 4137-4156 (2001); cited from earlier work
Escheria Coli = test: Minimum inhibitory concentration, gram negative bacteria; assay type: cell-based
[4] = system: Bordetella bronchispetica; test: as above; assay type: cell-based
Clostridium perfringens [5] = conditions: gram positive; from J. F. Presscott, Antimicrobial Therapy in Veterinary Medicine, 3rd ed.; cited from earlier work
Bacillus subtilis = test: Minimum inhibitory concentration, gram positive bacteria; assay type: cell-based
Staphylococcus aureus = test: as above; assay type: cell-based
Enterococcus faecalis [6] = conditions: gram positive; from J. Clin. Micro., 26: 11, 2415-2420 (1988); cited from earlier work
Bacteroides fragilis [7] = conditions: gram negative; from J. F. Presscott, Antimicrobial Therapy in Veterinary Medicine, 3rd ed.; cited from earlier work
Streptococcus pneumonia [8] = test: Minimum inhibitory concentration, gram positive bacteria; assay type: cell-based; conditions: Streptococcus pneumoniae
Streptococcus pyogenes [9] = test: as above; assay type: cell-based
Clostridium perfringens [10] = test: microbe, parasite or virus in culture; assay type: cell-based; conditions: read-out: Minimum Inhibitory Concentration Clostridium perfringens
Pasteurella multocida [11] = test: Minimum inhibitory concentration, gram negative bacteria; assay type: cell-based
Klebsiella Pneumonia = test: as above; assay type: cell-based; conditions: Klebsiella pneumoniae
Bacteroides fragilis [12] = test: as above; assay type: cell-based
Enterococcus faecalis [13] = test: Minimum inhibitory concentration, gram positive bacteria; assay type: cell-based

In the case of `CC[C@H]1OC(=O)[C@H](C)[C@@H](O[C@H]2C[C@@](C)(OC)[C@@H](O)[C@H](C)O2)[C@H](C)[C@@H](O[C@@H]2O[C@H](C)C[C@H](N(C)C)[C@H]2O)[C@](C)(OC)C[C@@H](C)C(=O)[C@H](C)[C@@H](O)[C@]1(C)O` [Clarithromycin], the “Minimum Inhibitory Concentration Pasteurella multocida” value (Pasteurella multocida [1]) is given as 2* μg/mL, the “Minimum Inhibitory Concentration Streptococcus pneumonia” value (Streptococcus pneumonia [2]) is given as 0.03^(1) μg/mL and the “Minimum Inhibitory Concentration Streptococcus pyogenes” value (Streptococcus pyogenes [3]) is given as 0.06^(1) μg/mL. For the same compound, the MIC (Escheria Coli) was 32 µg/mL (≈ 42.8 µM), the MIC [4] was 4 µg/mL (≈ 5.35 µM) and the “Minimum Inhibitory Concentration Clostridium perfringens” value (Clostridium perfringens [5]) was 4* μg/mL. For the same compound, the MIC (Bacillus subtilis) was under 0.25 µg/mL, the MIC (Staphylococcus aureus) was under 0.25 µg/mL and the “Minimum Inhibitory Concentration Enterococcus faecalis” value (Enterococcus faecalis [6]) was 2.7^(3) μg/mL. The “Minimum Inhibitory Concentration Bacteroides fragilis” value (Bacteroides fragilis [7]) was 16* μg/mL.
With `CC[C@H]1OC(=O)[C@H](C)[C@@H](OC2CC(C)(OC)C(OCCCN(C)C)C(C)O2)[C@H](C)[C@@H](OC2OC(C)CC(N(C)C)C2O)[C@](C)(OC)C[C@@H](C)C(=O)[C@H](C)[C@@H](O)[C@]1(C)O` (stereo partly drawn) [Formula 2, 4″-DMAP-Clarithromycin ether] the MIC (Streptococcus pneumonia [8]) was 0.25 µg/mL, the MIC (Streptococcus pyogenes [9]) was 0.25 µg/mL and the MIC (Escheria Coli) was 32 µg/mL. The MIC (Clostridium perfringens [10]) was 2 µg/mL, the MIC (Pasteurella multocida [11]) was 1 µg/mL and the MIC (Klebsiella Pneumonia) was 32 µg/mL. The MIC [4] was 4 µg/mL, the MIC (Bacteroides fragilis [12]) was 2 µg/mL and the MIC (Bacillus subtilis) was 0.25 µg/mL. The MIC (Staphylococcus aureus) was 0.25 µg/mL and the MIC (Enterococcus faecalis [13]) was 8 µg/mL.
Compound `CC[C@H]1OC(=O)[C@H](C)[C@@H](O[C@H]2C[C@@](C)(OC)[C@@H](O)[C@H](C)O2)[C@H](C)[C@@H](O[C@@H]2O[C@H](C)C[C@H](N(C)C)[C@H]2O)[C@](C)(O)C[C@@H](C)/C(=N\OCOCCOC)[C@H](C)[C@@H](O)[C@]1(C)O` [Roxithromycin] has an MIC (Streptococcus pneumonia [8]) of 0.25 µg/mL (≈ 0.299 µM), an MIC (Streptococcus pyogenes [9]) of 0.25 µg/mL (≈ 0.299 µM) and an MIC (Escheria Coli) of 32 µg/mL (≈ 38.2 µM). For the same compound, the MIC (Clostridium perfringens [10]) was 2 µg/mL (≈ 2.39 µM), the MIC (Pasteurella multocida [11]) was 1 µg/mL (≈ 1.19 µM) and the MIC (Klebsiella Pneumonia) was 32 µg/mL (≈ 38.2 µM). For the same compound, the MIC [4] was 1 µg/mL (≈ 1.19 µM), the MIC (Bacteroides fragilis [12]) was under 2 µg/mL and the MIC (Bacillus subtilis) was 0.25 µg/mL (≈ 0.299 µM). The MIC (Staphylococcus aureus) was 0.25 µg/mL (≈ 0.299 µM) and the MIC (Enterococcus faecalis [13]) was 8 µg/mL (≈ 9.56 µM).
For `CC[C@H]1OC(=O)[C@H](C)[C@@H](O[C@H]2C[C@@](C)(OC)[C@@H](O)[C@H](C)O2)[C@H](C)[C@@H](O[C@@H]2O[C@H](C)C[C@H](N(C)C)[C@H]2O)[C@](C)(O)C[C@@H](C)C(=O)[C@H](C)[C@@H](O)[C@]1(C)O` [Erythromycin], the “Minimum Inhibitory Concentration Pasteurella multocida” value (Pasteurella multocida [1]) is given as 4* μg/mL, the “Minimum Inhibitory Concentration Streptococcus pneumonia” value (Streptococcus pneumonia [2]) is given as 0.06^(1) μg/mL and the “Minimum Inhibitory Concentration Streptococcus pyogenes” value (Streptococcus pyogenes [3]) is given as 0.06^(1) μg/mL. The MIC (Escheria Coli) was 32 µg/mL (≈ 43.6 µM), the MIC [4] was 4 µg/mL (≈ 5.45 µM) and the “Minimum Inhibitory Concentration Clostridium perfringens” value (Clostridium perfringens [5]) was 4* μg/mL. The MIC (Bacillus subtilis) was 0.25 µg/mL (≈ 0.341 µM), the MIC (Staphylococcus aureus) was 0.25 µg/mL (≈ 0.341 µM) and the “Minimum Inhibitory Concentration Enterococcus faecalis” value (Enterococcus faecalis [6]) was 2.7^(3) μg/mL. For the same compound, the “Minimum Inhibitory Concentration Bacteroides fragilis” value (Bacteroides fragilis [7]) was >8* μg/mL.
